The test relates to SARS-CoV-2. Details: species or system Chlorocebus sabaeus, Vero C1008. Conditions: assay_design cell number determination; assay_format cell based format; assay_stage confirmatory assay; assaysupport stable transfection; bao_tags Fluorescence imaging cell growth inhibition assay; bioassay Fluorescence imaging cell growth inhibition assay; bioassay_setting in vitro; bioassay_type functional; detectioninstrument ArrayScan XTI HCS Reader; detectionmethod fluorescence microscopy.

Residues, ends and D or L forms follow the SMILES beside them. *: point of attachment. Cbz = O=C(OCc1ccccc1)*

Regarding `O=C(Nc1ccc(Cl)c(Cl)c1)Nc1ccc(Cl)c(Cl)c1`, the IC50 relative came out at 5.12 µM.

In turn, `Nc1nc(S)c2ncn(C3OC(CO)C(O)C3O)c2n1` (stereo not drawn) gave an IC50 relative of 16.2319 µM.

`CS(=O)(=O)O.Cc1c(C(=O)c2cccc3ccccc23)c2cccc3c2n1[C@H](CN1CCOCC1)CO3`: the IC50 relative came out at 11.9328 µM. Consider `CC(C)(C)C(=O)/C(=C/c1cccc([N+](=O)[O-])c1)n1cncn1`, for which the IC50 relative was determined as 4.9629 µM.

`COc1cc(/C=C2\SC(=O)NC2=O)ccc1Oc1ccc(C#N)cc1C(F)(F)F` had an IC50 relative of 49.4361 µM. The figure for `COc1cc2c(NC3CCN(C4CCCCC4)CC3)nc(N3CCCN(C(C)C)CC3)nc2cc1OCCCN1CCCCC1` is 17.2224 µM; for `O=c1cc(N2CCOCC2)oc2c(-c3cccc4c3sc3ccccc34)cccc12` it is 145.964 µM; for `CC(C)(C)c1cc(C=C(C#N)C#N)cc(Br)c1O` it is 7.2055 µM. Consider `CC(C)(C)c1ccccc1Oc1ncccc1NC(=O)Nc1ccc(OC(F)(F)F)cc1`, for which the IC50 relative was 9.5826 µM. The same measure for `C/C(=C\c1ccc(C(=O)O)cc1)c1ccc2c(c1)C(C)(C)CCC2(C)C`: 54.1303 µM; for `COc1cc2ncnc(Nc3cccc(Br)c3)c2cc1OC`: 13.3328 µM.

For `Nc1ncnc2c1ncn2[C@@H]1CC[C@@H](O)[C@H]1O`, the IC50 relative is 3.6981 µM. The same measure for `C[C@@H]1COCCN1c1cc(=O)n2c(n1)N(Cc1cncc(Cl)c1)[C@H](C(F)(F)F)CC2`: 19.8832 µM; for `O=C(C1CC1)N1CC[C@@H](Cc2n[nH]c(=O)n2-c2ccc(-c3ccc4occc4c3)cc2)C1`: 32.5565 µM; for `CCN(CC)c1ccc2cc(-c3nc4ccccc4[nH]3)c(=O)oc2c1`: 0.3531 µM.

For `Nc1ncc(-c2ccnc(Nc3ccncc3)n2)c(CC2CC2)n1`, the IC50 relative worked out at 12.577 µM. The figure for `CC(C)(O)CNc1ncc(-c2ccnc(Nc3ccnc(Cl)c3)n2)c(CC2CC2)n1` is 793.9225 µM. The compound `CCCCn1c(NC(=O)c2cccs2)c(C#N)c2nc3ccccc3nc21` returned an IC50 relative of 13.3332 µM. For `Cl.O=C(O)Cc1cccc(OCCCN(Cc2cccc(C(F)(F)F)c2Cl)CC(c2ccccc2)c2ccccc2)c1`, the IC50 relative stood at 16.3401 µM. `CCc1c(-c2ccc3[nH]ncc3c2)cnc(N)c1-c1ccc(O)cc1` showed an IC50 relative of 51.0608 µM.

The compound `Cc1ccc(Oc2nc3cc(-c4ccc(-c5ccccc5)cc4)c(Cl)cc3[nH]2)cc1C(=O)O` came in with an IC50 relative of 351.9839 µM. `N#Cc1cccc(C#N)c1-c1nc2c3ccc(Cl)cc3c3ccccc3c2[nH]1` showed an IC50 relative of 15.4145 µM. Regarding `COc1ccc(-c2c[nH]c3nccc(-c4ccsc4)c23)c(OC)c1`, the IC50 relative is 28.2582 µM. With `O=C(O)c1ccc(N2C(=O)/C(=C\c3ccc(-c4ccc([N+](=O)[O-])cc4)o3)C=C2c2ccccc2)cc1`, the IC50 relative was 651.6971 µM. With `Cl.Cl.N[C@H]1CC[C@H](N[C@@H]2C[C@H]2c2ccccc2)CC1`, the IC50 relative came to 65.2065 µM. `CS(=O)(=O)O.Cc1c(O)cccc1C(=O)NC(CSc1ccccc1)C(O)CN1CC2CCCCC2CC1C(=O)NC(C)(C)C` (stereo not drawn) gave an IC50 relative of 15.1399 µM. For the compound `Cl.O=C(c1c2ccccc2cc2ccccc12)N1CCC(N2CCC[C@@H](C(=O)N3CCOCC3)C2)CC1`, the IC50 relative was determined as 4.1627 µM. Turning to `Cc1cnc(Nc2ccc(F)cc2Cl)nc1-c1c[nH]c(C(=O)N[C@H](CO)c2cccc(Cl)c2)c1`, the IC50 relative amounted to 9.1133 µM. For the compound `Nc1nc(O)c2[nH]nnc2n1` [8-AZAGUANINE], the IC50 relative is 3.8962 µM. Compound `Nc1nc(N)c2nc(CNc3ccc(C(=O)N[C@@H](CCC(=O)O)C(=O)O)cc3)cnc2n1` [AMINOPTERIN] displayed an IC50 relative of 0.3554 µM. As to `CNCc1ccc(-c2cc(-c3nc(-c4ccc(S(=O)(=O)C(C)C)cc4)cnc3N)on2)cc1` [BERZOSERTIB], the IC50 relative worked out at 33.669 µM. On to `Oc1c(Cl)cc(Cl)cc1Sc1cc(Cl)cc(Cl)c1O` [BITHIONOL], for which the IC50 relative is 17.6664 µM. The figure for `CCCCOCCOc1ccc(-c2ccc3c(c2)/C=C(/C(=O)Nc2ccc([S@@+]([O-])Cc4cncn4CCC)cc2)CCCN3CC(C)C)cc1` [CENICRIVIROC] is 52.7809 µM; for `C[C@@H]1C[C@@H]([C@H](O)CC2CC(=O)NC(=O)C2)C(=O)[C@@H](C)C1` [CYCLOHEXIMIDE] it is 2.4209 µM; for `CC1=NN(c2ccc(C)c(C)c2)C(=O)/C1=N\Nc1cccc(-c2cccc(C(=O)O)c2)c1O` [ELTROMBOPAG] it is 56.9757 µM. For the compound `COc1ccccc1[C@H](Cn1c(=O)n(C(C)(C)C(=O)O)c(=O)c2c(C)c(-c3ncco3)sc21)OC1CCOCC1` [FIRSOCOSTAT], the IC50 relative was determined as 0.1223 µM. On to `CC[n+]1c(-c2ccccc2)c2cc(N)ccc2c2ccc(N)cc21.[Br-]` [HOMIDIUM BROMIDE], for which the IC50 relative stood at 96.2744 µM.

On to `CC(=O)[C@]1(O)Cc2c(O)c3c(c(O)c2[C@@H](O[C@H]2C[C@H](N)[C@H](O)[C@H](C)O2)C1)C(=O)c1ccccc1C3=O.Cl` [IDARUBICIN HYDROCHLORIDE], for which the IC50 relative worked out at 28.5706 µM. For the compound `CN(Cc1cnc2nc(N)nc(N)c2n1)c1ccc(C(=O)N[C@@H](CCC(=O)O)C(=O)O)cc1` [METHOTREXATE], the IC50 relative came out at 0.0551 µM. The same measure for `CC(C)C[C@@H](C=O)NC(=O)[C@H](CC(C)C)NC(=O)[C@H](CC(C)C)NC(=O)OCc1ccccc1` [MG-132] (Cbz-Leu-Leu-Leu-aldehyde): 4.4656 µM; for `COc1ccc2c(c1)[C@]1(C[C@H]1c1ccc3c(/C=C/c4ccc(CN5C[C@@H](C)O[C@@H](C)C5)cc4)n[nH]c3c1)C(=O)N2` [OCIFISERTIB]: 14.7188 µM; for `C#CCC(Cc1cnc2nc(N)nc(N)c2n1)c1ccc(C(=O)N[C@@H](CCC(=O)O)C(=O)O)cc1` (stereo partly drawn) [PRALATREXATE]: 0.0052 µM. `Cn1c(Nc2ccc(C(F)(F)F)cc2)nc2cc(Oc3ccnc(-c4ncc(C(F)(F)F)[nH]4)c3)ccc21` [RAF-265] gave an IC50 relative of 10.7684 µM. The figure for `CNC(=O)c1cc(Oc2ccc(NC(=O)Nc3ccc(Cl)c(C(F)(F)F)c3)c(F)c2)ccn1` [REGORAFENIB] is 16.4573 µM; for `CN(C)c1cccc(-c2c3c(=O)n(-c4ccccc4Cl)[nH]c3cc(=O)n2C)c1` [SETANAXIB] it is 73.5962 µM.

In turn, `O=C(Nc1ccc(Cl)cc1)Nc1ccc(Cl)c(Cl)c1` [TRICLOCARBAN] displayed an IC50 relative of 8.2868 µM. Compound `COc1cc(NCc2ccc3nc(N)nc(N)c3c2C)cc(OC)c1OC` [TRIMETREXATE] returned an IC50 relative of 0.3486 µM. `CC(C)(C)c1cc(C=C(C#N)C#N)cc(C(C)(C)C)c1O` [TYRPHOSTIN A9] displayed an IC50 relative of 0.8215 µM.

For the origin of these results see ChEMBL document CHEMBL5303708, “ECBD screening data for assay EOS300033” (2021).
